System: FCA-Induced Hyperalgesia
Test: FCA-Induced Hyperalgesia in the Guinea Pig
Format: in vivo
Settings: dose of 5 mg/kg po
Description: (b) FCA-Induced Hyperalgesia in the Guinea Pig Compounds having a pKb>7.0 in vitro, according to model (a) were tested in this model of hyperalgesia (see WO 2004/024710 for details) and shown to be active.

Which “activity in FCA-induced hyperalgesia model” value does the source give for Cn1c(=O)ccc2c(NC(=O)C3CCN(c4ccc(Cl)cc4)CC3)cccc21 [Example 1, 1-(4-Chlorophenyl)-N-(1-methyl-2-oxo-1,2-dihydro-5-quinolinyl)-4-piperidinecarboxamide] here?
The value was “significant activity”.

Reference: US20110059979A1, “Piperidine/Cyclohexane Carboxamide Derivatives For Use as Vanilloid Receptor Modulators” (GLAXO GROUP LIMITED, priority 2003, published 2011)
